From patent US20070276011A1, “Plasminogen Activator Inhibitor-1 Inhibitor” (priority 2003, published 2007)

Target: recombinant human PAI-1 (Homo sapiens, UniProt P05121)
Assay: PAI-1 inhibitory activity, Test Method A (tPA fluorogenic substrate, Tris buffer pH8.0, 37 C)
Assay type: biochemical
Conditions: Test Method A

recombinant human PAI-1, sequence (P05121 24-402): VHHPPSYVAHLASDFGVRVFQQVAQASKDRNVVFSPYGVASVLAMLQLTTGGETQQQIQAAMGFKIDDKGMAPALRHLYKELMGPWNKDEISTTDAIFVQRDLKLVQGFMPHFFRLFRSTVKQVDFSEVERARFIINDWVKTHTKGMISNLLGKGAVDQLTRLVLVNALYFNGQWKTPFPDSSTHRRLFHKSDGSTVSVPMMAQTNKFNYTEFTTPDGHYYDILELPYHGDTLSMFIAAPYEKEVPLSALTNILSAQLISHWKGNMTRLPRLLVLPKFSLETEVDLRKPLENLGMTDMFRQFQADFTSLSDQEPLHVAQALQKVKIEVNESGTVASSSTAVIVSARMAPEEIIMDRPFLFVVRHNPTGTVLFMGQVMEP

Structure (SMILES)	Inhibitory Ratio at 25 μM (%) (test compound 25 μM)	Inhibitory Ratio at 25 μM (%) (25 μM test compound)
O=C1C(=Cc2ccc(O)c(O)c2)C(C(F)(F)F)=NN1c1cc(Cl)cc(Cl)c1 [compound 147, 4-(3,4-Dihydroxybenzylidene)-1-(3,5-dichlorophenyl)*3-trifluoromethyl-2-pyrazolin-5-one]	>99%	–
CC(C)C1=NN(c2cc(Cl)cc(Cl)c2)C(=O)C1=Cc1cc(Br)cc(O)c1O [compound 529]	–	>99%
COc1ccc(NC(=O)c2cc(C=C3SC(=O)N(Cc4ccc(Cl)c(Cl)c4)C3=O)cc(OC)c2O)cc1C(F)(F)F [compound 360]	–	>99%
COc1ccc(NC(=O)c2cc(C=C3SC(=O)N(Cc4ccc([N+](=O)[O-])cc4)C3=O)ccc2O)cc1OC [compound 376, 5-[4-Hydroxy-3-(3,4-dimethoxyphenylcarbamoyl)benzylidene]-3-(4-nitrobenzyl)thiazolidine-2,4-dione]	–	84%
O=C(Cc1cccc(Oc2ccccc2)c1)Nc1cccc(CN2C(=O)SC(=Cc3ccc(O)c(O)c3)C2=O)c1 [compound 321]	–	>99%
CC(C)c1ccc(NC(=O)c2cc(C=C3SC(=O)N(Cc4ccc(Cl)c(Cl)c4)C3=O)ccc2O)c(Br)c1 [compound 472]	–	94%
COc1ccc(NC(=O)c2cc(C=C3SC(=O)N(Cc4cc(C(F)(F)F)ccc4C(F)(F)F)C3=O)ccc2O)cc1OC [compound 372, 5-[4-Hydroxy-3-(3,4-dimethoxyphenylcarbamoyl)benzylidene]-3-[2,5-bis(trifluoromethyl)benzyl]thiazolidine-2,4-dione]	–	>99%
CCOC1=NN(c2ccc([N+](=O)[O-])cc2)C(=O)C1=Cc1ccc(C(=O)OC)cc1 [compound 214]	29%	–
CC1=NN(c2ccc(Cl)c(Cl)c2)C(=O)C1=Cc1ccc(O)c(O)c1 [compound 152]	89%	–
CC(C)C1=NN(c2ccc(Cl)c(Cl)c2)C(=O)C1=Cc1cc(O)c(O)c(O)c1 [compound 134, 4-(3,4,5-Trihydroxybenzylidene)-1-(3,4-dichlorophenyl)-3-isopropyl-2-pyrazolin-5-one]	>99%	–
O=C1SC(=Cc2ccc(O)c(O)c2)C(=O)N1Cc1ccc(Cl)c(Cl)c1 [compound 9]	>99%	–
COc1cc(C=C2C(=O)N(c3ccc(Cl)c(Cl)c3)N=C2C(C)C)cc(C(=O)O)c1O [compound 559]	–	>99%
O=C(O)c1cccc(N2N=C(C(F)(F)F)C(=Cc3ccc(-c4cc(Cl)cc(Cl)c4)o3)C2=O)c1 [compound 218]	95%	–
O=C1SC(=Cc2cccc(O)c2O)C(=O)N1Cc1ccc([N+](=O)[O-])cc1 [compound 51, 5-(2,3-dihydroxybenzylidene)-3-(4-nitrobenzyl)thiazolidine-2,4-dione]	86%	–
O=C1C(=Cc2cc(Br)ccc2O)C(c2ccc(O)cc2)=NN1c1ccc(Cl)cc1 [compound 520, 4-(2-Hydroxy-5-bromobenzylidene)-1-(4-chlorophenyl)-3-(4-hydroxyphenyl)-2-pyrazolin-5-one]	–	>99%
COc1ccc(NC(=O)c2cc(C=C3SC(=O)N(Cc4cc(Cl)cc(Cl)c4)C3=O)ccc2O)cc1OC [compound 395, 5-[4-Hydroxy-3-(3,4-dimethoxyphenylcarbamoyl)benzylidene]-3-(3,5-dichlorobenzyl)thiazolidine-2,4-dione]	–	88%
CCOC1=NN(c2ccc([N+](=O)[O-])cc2)C(=O)C1=Cc1cc(O)c(O)c(O)c1 [compound 132]	>99%	–
O=C1SC(=Cc2cccc(Oc3ccccc3)c2)C(=O)N1Cc1cc(O)c(O)c(O)c1 [compound 310, 5-(3-Phenoxybenzylidene)-3-(3,4,5-trihydroxybenzyl)thiazolidine-2,4-dione]	–	>99%
COc1ccc(NC(=O)c2cc(C=C3SC(=O)N(Cc4ccc(Cl)c(Cl)c4)C3=O)ccc2O)cn1 [compound 407, 5-{4-hydroxy-3-[(2-methoxypyridin-5-yl)carbamoyl]benzylidene}-3-(3,4-dichlorobenzyl)thiazolidine-2,4-dione]	–	97%
COC(=O)c1cccc(NC(=O)c2cc(C=C3SC(=O)N(Cc4ccc(Cl)c(Cl)c4)C3=O)ccc2O)c1 [compound 417, 5-{4-hydroxy-3-[3-(methoxycarbonyl)phenylcarbamoyl]benzylidene}-3-(3,4-dichlorobenzyl)thiazolidine-2,4-dione]	–	59%
O=C(Nc1ccc(O)c(O)c1)c1cc(C=C2SC(=O)N(Cc3ccc(-c4ccccc4)cc3)C2=O)ccc1O [compound 373]	–	93%
COc1cccc(N2N=C(C(C)C)C(=Cc3ccc(O)c(O)c3)C2=O)c1 [compound 126]	44%	–
CCOC1=NN(c2ccc([N+](=O)[O-])cc2)C(=O)C1=Cc1ccc(C)c(OC)c1 [compound 213]	40%	–
O=C1SC(=Cc2cccc(O)c2O)C(=O)N1Cc1ccc(Cl)cc1 [compound 32, 5-(2,3-Dihydroxybenzylidene)-3-(4-chlorobenzyl)thiazolidine-2,4-dione]	>99%	–

Structure (SMILES)	Inhibitory Ratio at 25 μM (%) (test compound 25 μM)	Inhibitory Ratio at 25 μM (%) (25 μM test compound)
Cc1cccc(C=C2SC(=O)N(Cc3cc(C(F)(F)F)cc(C(F)(F)F)c3)C2=O)c1O [compound 6]	46%	–
CC(C)C1=NN(c2ccc(C=Cc3ccccn3)cc2)C(=O)C1=Cc1cc(C=Cc2ccccc2)ccc1O [compound 544, 4-(2-Hydroxy-5-styrylbenzylidene)-1-{4-[2-(pyridin-2-yl)vinyl]phenyl}-3-isopropyl-2-pyrazolin-5-one]	–	41%
O=C1SC(=Cc2cc(C=Cc3ccccc3)ccc2O)C(=O)N1Cc1ccc(Cl)c(Cl)c1 [compound 322, 5-(2-Hydroxy-5-styrylbenzylidene)-3-(3,4-dichlorobenzyl)thiazolidine-2,4-dione]	–	89%
O=C1SC(=Cc2ccc(O)c(O)c2)C(=O)N1Cc1cc(Cl)cc(Cl)c1 [compound 12]	>99%	–
O=C(Nc1cc(C(F)(F)F)ccc1C(F)(F)F)c1cc(C=C2SC(=O)N(Cc3ccc(Cl)c(Cl)c3)C2=O)ccc1O [compound 403]	–	58%
O=C1C(=Cc2ccc(O)c(O)c2)C(c2ccccc2)=NN1c1ccc(Cl)c(Cl)c1 [compound 221]	>99%	–
COC(=O)c1cccc(N2N=C(C(F)(F)F)C(=Cc3ccc(-c4cc(C(F)(F)F)cc(C(F)(F)F)c4)o3)C2=O)c1 [compound 177, 4-({5-[3,5-Bis(trifluoromethyl)phenyl]furan-2-yl}methylene)-1-(3-methoxycarbonylphenyl)-3-trifluoromethyl-2-pyrazolin-5-one]	86%	–
COC(=O)c1cccc(N2N=C(c3ccccc3)C(=Cc3ccc(O)c(O)c3)C2=O)c1 [compound 154, 4-(3,4-Dihydroxybenzylidene)-1-[3-(methoxycarbonyl)phenyl]-3-phenyl-2-pyrazolin-5-one]	>99%	–
COc1ccc(NC(=O)c2cc(C=C3SC(=O)N(Cc4ccc(-c5ccccc5)cc4)C3=O)ccc2O)cc1OC [compound 371, 5-[4-Hydroxy-3-(3,4-dimethoxyphenylcarbamoyl)benzylidene]-3-(4-phenylbenzyl)thiazolidine-2,4-dione]	–	>99%
CCOc1cc(C=C2C(=O)N(c3cccc(C(F)(F)F)c3)N=C2C)ccc1OCC(=O)O [compound 159]	32%	–
COC(=O)c1cccc(NC(=O)c2cc(C=C3SC(=O)N(Cc4ccc(Cl)c(Cl)c4)C3=O)cc(O)c2O)c1 [compound 470]	–	95%
Cc1cc(C)cc(CN2C(=O)SC(=Cc3cccc(O)c3O)C2=O)c1 [compound 26, 5-(2,3-Dihydroxybenzylidene)-3-(3,5-dimethylbenzyl)thiazolidine-2,4-dione]	>99%	–
COc1cc(C=C2SC(=O)N(Cc3ccc(Cl)c(Cl)c3)C2=O)cc(OC)c1OC [compound 348]	–	44%
O=C1SC(=Cc2cc(O)c(O)c(O)c2)C(=O)N1Cc1cc(Cl)cc(Cl)c1 [compound 54]	>99%	–
O=C1C(=Cc2cc(O)c(O)cc2O)C(C(F)(F)F)=NN1c1cc(Cl)cc(Cl)c1 [compound 151]	>99%	–
CCOC1=NN(c2ccc([N+](=O)[O-])cc2)C(=O)C1=Cc1cc(O)c(O)cc1O [compound 223]	88%	–
O=C(Nc1cc(Cl)ccc1C(=O)O)c1cc(C=C2SC(=O)N(Cc3ccc(Cl)c(Cl)c3)C2=O)ccc1O [compound 458]	–	>99%
CC(C)(C)c1cc(CN2C(=O)SC(=Cc3cccc(O)c3O)C2=O)cc(C(C)(C)C)c1O [compound 13, 5-(2,3-Dihydroxybenzylidene)-3-[3,5-di(tert-butyl)-4-hydroxybenzyl]-thiazolidine-2,4-dione]	>99%	–
O=C1SC(=Cc2cccc(O)c2O)C(=O)N1CCc1ccc(Cl)cc1 [compound 90, 5-(2,3-Dihydroxybenzylidene)-3-[2-(4-chlorophenyl)ethyl]thiazolidine-2,4-dione]	>99%	–
O=C1SC(=Cc2ccc(O)c(O)c2)C(=O)N1Cc1cccc(Nc2ccccc2)c1 [compound 318, 5-(3,4-Dihydroxybenzylidene)-3-[3-(phenylamino)benzyl]thiazolidine-2,4-dione]	–	>99%
CC1=NN(c2cccc(C(=O)O)c2)C(=O)C1=Cc1ccc(-c2cccc([N+](=O)[O-])c2)o1 [compound 193]	32%	–
O=C1SC(=Cc2ccc(O)c(O)c2)C(=O)N1Cc1cccc([N+](=O)[O-])c1 [compound 48, 5-(3,4-Dihydroxybenzylidene)-3-(3-nitrobenzyl)thiazolidine-2,4-dione]	67%	–
O=C1SC(=Cc2cccc(O)c2O)C(=O)N1Cc1cccc(Cl)c1 [compound 30, 5-(2,3-Dihydroxybenzylidene)-3-(3-chlorobenzyl)thiazolidine-2,4-dione]	>99%	–
